Where two headings read alike, the source gives them in different places.
How the values were obtained:
[1] = biological target: NHBANg (Neisseria gonorrhoeae, UniProt B4RQT3); test: SPR analysis of glycan binding; details: for SPR binding, in words: glycans 100 μM to 1 nM
Description: Surface plasmon resonance (SPR) was performed using a BIAcore T200 instrument with recombinant NHBANg (100 μg/ml) immobilized on flow cells 2-4 by amine coupling on series S CMS sensor chips (GE Healthcare) as described previously. Flow cell 1 was used as the reference cell and immobilized with ethanolamine only. Single cycle kinetics was used to calculate the affinity (KD) of interactions with glycans run in 1:5 dilution series at concentrations between 100 μM to 1 nM. Results were analysed using BIAcore T200 software 2.0.2.

[2] = test system: N. gonorrhoeae 1291 ΔNHBA; test: Normal human serum survival assay; format: cell-based, Neisseria gonorrhoeae; details: ΔNHBA mutant; 10% normal human serum, 60 minutes; 6 μM heparin pre-incubation
Description: Resistance of N. gonorrhoeae to serum-mediated killing was tested as described previously with ˜10^4 CFU incubated in 10% (v/v) for 60 minutes at 37° C. and subsequently plated on GC agar. Bacteria were pre-incubated with 6 μM heparin 30 minutes where indicated. Bacterial survival was calculated as percent CFU (average from three replicate wells) relative to no treatment control.

[3] = biological target: NHBANm (Neisseria meningitidis serogroup B, UniProt Q7DD37); details: cited from earlier work
[4] = test system: NHBA-heparin interactions; test: SPR competition assay, blocking of NHBA-heparin interactions by sera; format: binding, Neisseria gonorrhoeae; details: 1:200 dilution of serum; heparin max 50 μM
Description: SPR competition assays were performed using a Pall Pioneer FE. Competition assays were performed as previously described using NextStep injections in the OneStep assay builder. Pre- and post-immune NHBA mouse sera were used as the first injection (A), and heparin as the second injection (B). Binding of heparin (maximum OneStep concentration of 50 μM) to NHBA was compared with and without serum, and with 1:200 dilution of pre- or post-immune serum. Data was collected using the Pioneer Software package and analyzed using Qdat analysis software. The percentage blocking was calculated based on the relative RMax of the heparin injection without serum (Injection A=buffer; B=heparin) versus the serum subtracted (Injection A=pre/postimmune serum; B=buffer) binding of heparin in the presence of serum ((Injection A=pre/postimmune serum; B=heparin).

[5] = test system: N. gonorrhoeae adherence to cervical (tCX) epithelial cells; test: Blocking of gonococcal adherence by sera, cervical epithelial cells; format: cell-based, Neisseria gonorrhoeae
Description: (§1) Gonococcal adherence assays were performed as described previously with following modifications. Briefly, tCX and tUEC cell monolayers were infected (10 min at 37° C.) with approximately 1×10^5 CFU that was initially pre-incubated with serial dilutions of heat-inactivated mouse sera for 30 min at room temperature. Following the infection, cell monolayers were washed three times with warm HBSS to remove non-adherent bacteria and well contents plated onto GC agar. Results were calculated as the mean CFU from three replicate wells and presented as percentage of adherent bacteria relative to no antibody control. Statistical analysis performed with ANOVA and two-tailed Student's t-test. Each experiment was performed three times.

[6] = test system: N. gonorrhoeae adherence to urethral (tUEC) epithelial cells; test: Blocking of gonococcal adherence by sera, urethral epithelial cells; format: cell-based, Neisseria gonorrhoeae
Description: as §1

[7] = single cycle kinetics, immobilised NHBANg, read-out: KD

Molecule: CC(=O)N[C@H]1[C@H](O[C@H]2[C@@H](O)[C@@H](CO)O[C@@H](O[C@H]3[C@H](O)[C@@H](O)C(O)O[C@@H]3CO)[C@@H]2O)O[C@H](CO)[C@@H](O[C@@H]2O[C@H](CO)[C@H](O)[C@H](O)[C@H]2O)[C@@H]1O (stereo partly drawn) [LNnT, lacto N-neotetraose]
- Kd [1]: 4890 nM

Molecule: chondroitin sulfate
- Kd [1, 7]: 73 nM

Molecule: CC(=O)N[C@H]1[C@H]([C@H](O)[C@H](O)CO)O[C@@](O[C@H]2[C@@H](O)[C@@H](CO)O[C@@H](O[C@H]3[C@H](O[C@@H]4O[C@@H](C)[C@@H](O)[C@@H](O)[C@@H]4O)[C@@H](NC(C)=O)C(O)O[C@@H]3CO)[C@@H]2O)(C(=O)O)C[C@@H]1O (stereo partly drawn) [sialyl Lewis X]
- Kd ([1]; single cycle kinetics, immobilised NHBANg): 3650 nM

Molecule: heparin
- Kd [1, 7]: 4.4 nM
- survival in human serum after pre-treatment, in words [2]: increased survival

Molecule: O=C[C@H](O)[C@@H](O)[C@H](O)[C@H](O)COP(=O)(O)O [β-Glc6P, glucose 6-phosphate]
- Kd [3]: 56 nM

Molecule: chondroitin 4-sulfate [chondroitin sulfate A]
- SPR binding, in words [1]: no concentration dependent binding

Molecule: heparan sulfate
- Kd [1, 7]: 2790 nM

Molecule: CC(=O)N[C@H]1C(O)O[C@H](CO)[C@@H](O[C@@H]2O[C@H](CO)[C@H](O)[C@H](O)[C@H]2O)[C@@H]1O[C@@H]1O[C@@H](C)[C@@H](O)[C@@H](O)[C@@H]1O (stereo partly drawn) [Lewis X]
- fold greater affinity than for sialyl Lewis X ([1]; ratio of KD): 5 fold
- Kd [1, 7]: 680 nM

Molecule: CC(=O)N[C@H]1[C@H](O[C@H]2[C@@H](O)[C@@H](CO)O[C@@H](O[C@H]3[C@H](O)[C@@H](O)C(O)O[C@@H]3CO)[C@@H]2O)O[C@H](CO[C@]2(C(=O)O)C[C@H](O)[C@@H](NC(C)=O)[C@H]([C@H](O)[C@H](O)CO)O2)[C@@H](O)[C@@H]1O[C@@H]1O[C@H](CO)[C@H](O)[C@H](O)[C@H]1O (stereo partly drawn) [LSTb]
- Kd [1]: 2260 nM

Molecule: CC(=O)N[C@H]1[C@H](O[C@H]2[C@@H](O)[C@@H](CO)O[C@@H](O[C@H]3[C@H](O)[C@@H](O)C(O)O[C@@H]3CO)[C@@H]2O)O[C@H](CO)[C@@H](O[C@@H]2O[C@H](CO[C@]3(C(=O)O)C[C@H](O)[C@@H](NC(C)=O)[C@H]([C@H](O)[C@H](O)CO)O3)[C@H](O)[C@H](O)[C@H]2O)[C@@H]1O (stereo partly drawn) [LSTc]
- Kd [1]: 240 nM

Molecule: chondroitin 6-sulfate [chondroitin sulfate C]
- SPR binding, in words [1]: bound

Molecule: dermatan sulfate [chondroitin sulfate B]
- SPR binding, in words [1]: no concentration dependent binding

Molecule: hyaluronan
- SPR binding, in words [1]: No concentration dependent binding

Molecule: C[C@@H]1O[C@@H](O[C@@H]2[C@@H](O)[C@@H](O)[C@@H](CO)O[C@H]2O)[C@@H](O)[C@H](O)[C@@H]1O [H-disaccharide]
- SPR binding, in words [1]: No concentration dependent binding

B1: NHBA-c: C-terminal fragment of NHBA of N. gonorrhoeae 1291 (SEQ ID NO:2, 183 amino acids); antisera to it, adjuvant not stated at place (protein)
chain: SLPAEIPLIPVNQADTLIVDGEAVSLTGHSGNIFAPEGNYRYLTYGAEKLPGGSYALRVQGEPAKGEMLAGTAVYNGEVLHFHMENGRPYPSGGRFAAKVDFGSKSVDGIIDSSDDLHMGTQKFKAAIDGNGFKGTWTENGGGDVSGRFYGPAGEEVAGKYSYRPTDAEKGGFGVFAGKKDRD
modifications: Neisseria gonorrhoeae (strain 1291)
- reduction of heparin binding to NHBA [4]: 11%
- adherence of serum-treated gonococci, in words ([5]; cervical epithelial cells, all tested concentrations, relative to untreated control): significantly reduced adherence
- decrease of gonococcal adherence ([5]; tCX cells, 1:20 dilution of sera, relative to no antibody control): 8 fold
- decrease of gonococcal adherence ([6]; tUEC cells, 1:20 dilution of sera, relative to no antibody control): 5 fold
- adherence of serum-treated gonococci, in words ([6]; urethral epithelial cells, all tested concentrations, relative to untreated control): significantly reduced adherence
